This note sets out measurements from patent EP4691489A1, “GROWTH HORMONE SECRETION PROMOTER” (Scohia Pharma, Inc., priority 2023, dated 2024).

Experiment [1] deals with T1, SSTR 5 (Homo sapiens, UniProt P35346). Description: human SSTR5 antagonist activity using intracellular cAMP concentration as an indicator (HTRF). The experiment is classed as cell-based. Also on record: expressed in transfected cells. As to conditions: 1 µM test compound; CHO (dhfr-) cells expressing human SSTR5; 0.1 nM somatostatin 28, 0.3 µM forskolin; read-out: inhibitory rate (%) against SSTR5 at 1 µM. The protocol: The intracellular cAMP concentration was measured using HTRF cAMP dynamic 2 kit (Cisbio). A test compound diluted with an assay buffer (5 mM HEPES (pH 7.5) (Invitrogen), 0.1% fatty-acid free BSA (Sigma), and 500 µM IBMX (Wako)-containing HBSS (Invitrogen)) was added at 2 µL/well to a 384-well white plate (Greiner) to a final concentration of 1 µM. Frozen stock of CHO (dhfr-) cells stably expressing the human SSTR5 gene (Accession No. NM_001053) was thawed in a thermostatic tank at 37°C and suspended in a passage medium (MEM alpha (Wako)) containing 10% dialyzed serum (Gemini) and 50 µg/mL gentamicin (Invitrogen). The cell suspension was centrifuged, and the cells were resuspended in an assay buffer, and added by 2 µL to each well at about 4,000 cells/well. The compound and the cells were incubated for 15 min, an assay buffer containing a final concentration 0.1 nM of somatostatin 28 (Toray Research Center) and 0.3 µM forskolin (Wako) was added by 2 µL/well, and the cells were incubated at room temperature for 30 min. cAMP-d2 and anti-cAMP-cryptate were each added by 3 µL/well, allowed to stand at room temperature for 60 min, and the fluorescence resonance energy transfer (FRET) intensity was measured using the Multi-label reader Envision (Perkin Elmer). The FRET intensity of the wells to which the test compound group was added was converted into cAMP concentration by using a calibration curve created from the FRET intensities of well groups in which cAMP at any concentration was added to the assay buffer. The inhibitory activity of the compound was calculated using the following formula. Inhibitory activity(%) = (C−B)/(A−B) × 100 [formula] • A: cAMP concentration calculated from wells containing 0.3 µM forskolin • B: cAMP concentration calculated from wells containing 0.3 µM forskolin, 0.1 nM somatostatin 28 • C: cAMP concentration of wells containing 0.3 µM forskolin, 0.1 nM somatostatin 28, and 1 µM test compound
T1 sequence (P35346 whole entry): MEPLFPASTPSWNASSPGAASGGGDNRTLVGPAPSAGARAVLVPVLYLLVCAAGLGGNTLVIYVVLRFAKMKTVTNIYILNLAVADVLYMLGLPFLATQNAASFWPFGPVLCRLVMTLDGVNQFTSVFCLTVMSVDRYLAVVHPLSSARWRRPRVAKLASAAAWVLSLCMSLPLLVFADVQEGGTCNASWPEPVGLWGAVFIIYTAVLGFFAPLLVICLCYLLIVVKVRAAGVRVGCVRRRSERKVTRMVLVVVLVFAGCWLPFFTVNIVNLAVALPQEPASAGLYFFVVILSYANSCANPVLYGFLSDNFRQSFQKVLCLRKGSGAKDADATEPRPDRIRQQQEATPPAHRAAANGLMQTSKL
For orientation: In TR-FRET formats the signal depends on donor and acceptor labels being close together.

The target in experiment [2] is T2, SSTR 1 (Homo sapiens, UniProt P30872).
T2 construct: expressed in transfected cells; host or cells: CHO-K1 cells (membrane fraction)
T2 sequence (P30872 whole entry): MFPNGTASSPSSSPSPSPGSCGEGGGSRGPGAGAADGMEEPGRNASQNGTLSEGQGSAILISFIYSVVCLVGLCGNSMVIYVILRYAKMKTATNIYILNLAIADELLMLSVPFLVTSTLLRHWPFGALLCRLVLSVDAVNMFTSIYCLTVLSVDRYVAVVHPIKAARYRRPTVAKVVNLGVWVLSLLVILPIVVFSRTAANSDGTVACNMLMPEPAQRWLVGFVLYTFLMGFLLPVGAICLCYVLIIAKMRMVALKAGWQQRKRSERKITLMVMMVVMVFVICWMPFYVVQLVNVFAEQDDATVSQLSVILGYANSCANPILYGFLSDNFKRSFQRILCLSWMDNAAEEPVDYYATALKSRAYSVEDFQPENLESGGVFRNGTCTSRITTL
In words: radiolabeled ligand binding assay, selectivity for human SSTR subtype. As to conditions: CHO-K1 membrane fraction, [125I] Tyr11-somatostatin 14, 1 µM compound. As for the experimental part: (§1) The selectivity of test compounds for human SSTR subtypes was investigated by radiolabeled ligand binding assay. The membrane fraction of CHO-K1 cells expressing human SSTR1-5 was suspended in am assay buffer (25 mM HEPES (pH 7.4), 5 mM MgCl2, 1 mM CaCl2, 10 µg/mL saponin, 0.5% fatty-acid free BSA) and incubated for 1 hr in the presence of 1 µM test compound 1 and [^125I] Tyr^11-somatostatin 14 (Perkin Elmer). Thereafter, the solution containing the membrane fraction was transferred onto a filter plate, and after washing the filter six times with a wash buffer (25 mM HEPES, 5 mM MgCl2, 1 mM CaCl2), 50 µL of Microscint 20 (Packard) was added, and the radioactivity was measured using a TopCount (Perkin Elmer). The results of competitive activity of the test compound against the binding of the human SSTR subtypes with the labeled ligands are shown in Table 2.

Experiment [3] addresses T3, SSTR 2 (Homo sapiens, UniProt P30874).
T3 construct: expressed in transfected cells; host or cells: CHO-K1 cells (membrane fraction)
The description is as above. The settings on record: CHO-K1 membrane fraction, [125I] Tyr11-somatostatin 14, 1 µM compound. As for the experimental part:
as §1

In experiment [4] the target is T4, SSTR 3 (Homo sapiens, UniProt P32745).
T4 construct: expressed in transfected cells; host or cells: CHO-K1 cells (membrane fraction)
T4 sequence (P32745 whole entry): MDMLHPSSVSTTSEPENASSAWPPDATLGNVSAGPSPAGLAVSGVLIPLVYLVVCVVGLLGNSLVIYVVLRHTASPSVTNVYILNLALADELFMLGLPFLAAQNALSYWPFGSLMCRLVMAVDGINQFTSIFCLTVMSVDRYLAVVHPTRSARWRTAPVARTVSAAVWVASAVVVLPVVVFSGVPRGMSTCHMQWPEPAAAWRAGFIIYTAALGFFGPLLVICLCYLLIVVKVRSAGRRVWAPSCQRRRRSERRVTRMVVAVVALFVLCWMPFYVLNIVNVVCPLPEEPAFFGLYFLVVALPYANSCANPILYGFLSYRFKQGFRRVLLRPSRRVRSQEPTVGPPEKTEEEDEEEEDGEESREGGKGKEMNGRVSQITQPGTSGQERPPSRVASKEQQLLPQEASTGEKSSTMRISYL
Described as above. The settings on record: CHO-K1 membrane fraction, [125I] Tyr11-somatostatin 14, 1 µM compound. The protocol: as §1

In experiment [5] the target is T5, SSTR 4 (Homo sapiens, UniProt P31391).
T5 construct: expressed in transfected cells; host or cells: CHO-K1 cells (membrane fraction)
T5 sequence (P31391 whole entry): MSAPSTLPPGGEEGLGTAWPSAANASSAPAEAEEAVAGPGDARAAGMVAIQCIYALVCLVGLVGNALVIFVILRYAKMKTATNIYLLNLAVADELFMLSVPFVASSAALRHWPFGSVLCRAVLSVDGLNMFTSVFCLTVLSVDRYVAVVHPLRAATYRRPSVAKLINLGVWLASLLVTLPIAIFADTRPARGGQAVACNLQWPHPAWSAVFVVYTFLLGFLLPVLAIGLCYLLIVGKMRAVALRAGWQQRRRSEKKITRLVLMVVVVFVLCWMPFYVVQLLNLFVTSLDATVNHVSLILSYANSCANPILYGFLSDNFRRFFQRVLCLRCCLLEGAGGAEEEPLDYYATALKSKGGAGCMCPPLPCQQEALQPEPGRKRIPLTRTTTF
The experiment is described as above. The settings on record: CHO-K1 membrane fraction, [125I] Tyr11-somatostatin 14, 1 µM compound. As for the experimental part: as §1

Experiment [6] deals with healthy Japanese adult men. Description: Phase 1 single dose study, blood anterior pituitary hormone concentrations (ELISA). The experiment is classed as in vivo. The settings on record: human. As for the experimental part:
The examples in this section show the measurement results of blood anterior pituitary hormone concentrations using blood samples from a dose escalation study targeting healthy Japanese adult men, from A Randomized, Double-Blind, Placebo-Controlled, Phase 1 Study (jRCT2051210027) targeting healthy adults, which was conducted to examine the safety and tolerability, pharmacokinetics, and pharmacodynamic action of a single administration of test compound 1.
In a randomized, double-blind, placebo-controlled, parallel-group comparison, dose-escalation study consisting of 7 cohorts, a single dose of test compound 1 (1, 3, 10, 20, 40, 80 and 160 mg) or placebo was orally administered under fasting conditions. Eight test subjects (6 in the active drug group and 2 in the placebo group) participated in each cohort. The concomitant use of all medications was prohibited from 28 days before hospitalization until discharge.
The test subjects were inspected and examined within 28-2 days and 1 day before administration of test compound 1, and eligibility was confirmed based on the above-mentioned inclusion criteria and exclusion criteria. […] They were fasted for 10 hr before administration and 4 hr after administration until lunch, and took lunch at 13:00 p.m. The blood was collected 0.5 hr before and 1, 2, 4, 6, 8, and 10 hr after administration of test compound 1.
The concentration of anterior pituitary hormone was measured using blood from the placebo administration group of all cohorts and the test subjects who received administration of 1 mg or 10 mg of test compound 1, at 0.5 hr before administration and 2, 4, 6, 8, and 10 hr after administration. The concentrations of growth hormone, follicle-stimulating hormone, luteinizing hormone, thyroid-stimulating hormone, adrenocorticotropic hormone, and prolactin in blood were measured using the Human Growth Hormone Quantikine ELISA Kit (manufactured by R&D Systems), Follicle-Stimulating Hormone (Human) ELISA Kit (manufactured by Cayman Chemical), Luteinizing Hormome (Human) ELISA Kit (manufactured by Cayman Chemical), U-TSH ELISA (manufactured by BIOCHECK), ACTH ELISA Kit (manufactured by MB Biosciences GmbH), and Human Prolactin Quantikine ELISA Kit (manufactured by R&D Systems) according to the protocol described in the package insert of each kit.
For orientation: An ELISA detects its analyte on a solid surface through an enzyme-linked reagent.

The target in experiment [7] is T1, SSTR 5. In words: radiolabeled ligand binding assay, selectivity for human SSTR subtype. Also noted: expressed in transfected cells; host or cells: CHO-K1 cells (membrane fraction). As for the experimental part:
as §1

The structures appear in SMILES notation.

T3 sequence (P30874 whole entry): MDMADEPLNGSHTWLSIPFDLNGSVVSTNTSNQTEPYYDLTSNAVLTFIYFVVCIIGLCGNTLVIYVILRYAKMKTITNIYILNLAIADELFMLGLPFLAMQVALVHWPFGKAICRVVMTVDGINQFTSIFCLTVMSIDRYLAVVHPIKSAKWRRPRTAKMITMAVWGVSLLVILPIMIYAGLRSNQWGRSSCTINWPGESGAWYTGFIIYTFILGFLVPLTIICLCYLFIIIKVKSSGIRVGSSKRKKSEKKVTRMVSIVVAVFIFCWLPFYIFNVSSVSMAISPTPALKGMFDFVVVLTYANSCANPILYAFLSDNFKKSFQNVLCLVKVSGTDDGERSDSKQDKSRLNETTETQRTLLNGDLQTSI

For the compound `Cc1c(C(=O)O)ccn(C2CCN(Cc3cc(C4CC4)c(-c4ccc(F)cc4)c(F)c3OC(C)C)CC2)c1=O` [test compound 6, 1-(1-((6-cyclopropyl-2,4'-difluoro-3-isopropoxybiphenyl-4-yl)methyl)piperidin-4-yl)-3-methyl-2-oxo-1,2-dihydropyridine-4-carboxylic acid], the inhibition at 1 µM in experiment [1] was determined as 99%.
Consider `CCOc1c(CN2CCC(n3ccc(C(=O)O)c(C)c3=O)CC2)cc(C2CC2)c(-c2ccc(F)cc2)c1F` [test compound 7, 1-(1-((6-cyclopropyl-3-ethoxy-2,4'-difluorobiphenyl-4-yl)methyl)piperidin-4-yl)-3-methyl-2-oxo-1,2-dihydropyridine-4-carboxylic acid], for which the inhibition at 1 µM in experiment [1] is 87%.
With `CCCc1nc2c(cc1C(=O)O)C(=O)N(C1CCN(Cc3cc(C4CC4)c(-c4ccc(F)cc4F)cc3OCC)CC1)CC2` [test compound 3, 6-(1-((2-cyclopropyl-5-ethoxy-2',4'-difluorobiphenyl-4-yl)methyl)piperidin-4-yl)-5-oxo-2-propyl-5,6,7,8-tetrahydro-1,6-naphthyridine-3-carboxylic acid], in experiment [1], the inhibition at 1 µM was 125%.
`CCOc1c(CN2CCC(N3CCc4nc(CC)c(C(=O)O)cc4C3=O)CC2)cc(C2CC2)c(-c2ccc(F)cc2)c1F` [test compound 4, 6-(1-((6-cyclopropyl-3-ethoxy-2,4'-difluorobiphenyl-4-yl)methyl)piperidin-4-yl)-2-ethyl-5-oxo-5,6,7,8-tetrahydro-1,6-naphthyridine-3-carboxylic acid]: the inhibition at 1 µM in experiment [1] was determined as 95%.
On to `CCCc1nc2c(cc1C(=O)O)C(=O)N(C1CCN(Cc3cc(C4CC4)c(-c4ccc(F)cc4)cc3OCC)CC1)CC2` [test compound 1, 6-(1-((2-cyclopropyl-5-ethoxy-4'-fluorobiphenyl-4-yl)methyl)piperidin-4-yl)-5-oxo-2-propyl-5,6,7,8-tetrahydro-1,6-naphthyridine-3-carboxylic acid], for which the “labeled ligand binding rate (%) at 1 µM” value is given as 105.83% in experiment [2]; 100.31% in experiment [3]; 99.22% in experiment [4]; 109.00% in experiment [5]; 4.51% in experiment [7] (SSTR 5, CHO-K1 membrane fraction, [125I] Tyr11-somatostatin 14, 1 µM compound). Further, the “growth hormone secretion (blood growth hormone concentration)” value in experiment [6] (single oral dose 1 mg and 10 mg, fasting, up to 10 hr after administration, Fig. 1) is reported as “clearly enhance growth hormone secretion”. Further, the “secretion of follicle-stimulating hormone” value in experiment [6] (single oral dose 1 mg and 10 mg, fasting, Fig. 2) is on record as “did not substantially affect the secretion”. Besides, the “secretion of luteinizing hormone” value in experiment [6] (single oral dose 1 mg and 10 mg, fasting, Fig. 3) is given as “did not substantially affect the secretion”. In addition, the “secretion of thyroid-stimulating hormone” value in experiment [6] (single oral dose 1 mg and 10 mg, fasting, Fig. 4) is “did not substantially affect the secretion”. Further, the “secretion of adrenocorticotropic hormone” value in experiment [6] (single oral dose 1 mg and 10 mg, fasting, Fig. 5) is given as “did not substantially affect the secretion”. Further, the secretion of prolactin entry in experiment [6] (single oral dose 1 mg and 10 mg, fasting, Fig. 6) is “did not substantially affect the secretion”. The “increase in blood growth hormone concentration compared with growth hormone replacement therapy” value in experiment [6] (compared with literature values for patients with pediatric growth hormone deficiency (J Clin Endocrinol Metab. 2017)) was “corresponds to the blood growth hormone concentration obtained by growth hormone replacement therapy”. In addition, in experiment [1], the inhibition at 1 µM is 87%. Further, the “selectivity among the human SSTR subtypes” value in experiment [7] (conclusion from Table 2, 1 µM) is “selectively binds to SSTR5”.
As to `CCOc1c(CN2CCC(n3ccc(C(=O)O)c(CC)c3=O)CC2)cc(C2CC2)c(-c2ccc(F)cc2)c1F` [test compound 5, 1-(1-((6-cyclopropyl-3-ethoxy-2,4'-difluorobiphenyl-4-yl)methyl)piperidin-4-yl)-3-ethyl-2-oxo-1,2-dihydropyridine-4-carboxylic acid], in experiment [1], the inhibition at 1 µM was 87%.
Regarding `CCCc1nc2c(cc1C(=O)O)C(=O)N(C1CCN(Cc3cc(C4CC4)c(-c4ccc(F)cc4)c(F)c3OCC)CC1)CC2` [test compound 2, 6-(1-((6-cyclopropyl-3-ethoxy-2,4'-difluorobiphenyl-4-yl)methyl)piperidin-4-yl)-5-oxo-2-propyl-5,6,7,8-tetrahydro-1,6-naphthyridine-3-carboxylic acid], the inhibition at 1 µM in experiment [1] turned out to be 85%.
